Reference: patent US6645983B1, “Pharmaceutical compositions comprising 4-quinolones for treating cancers” (Laboratoire L. Lafon, priority 1999, dated 2003)

Tested on: SW1088
Assay: MTT test, cytotoxic activity on non-clonogenic cell lines
Format: cell-based
Settings: Homo sapiens, 10^−5 M, 72 hours of incubation, control condition = 100%, mean value, read-out: mean optical density as percentage of control, SW1088
Method: (§1) The principle of the MTT test is based on the mitochondrial reduction, by the metabolically active live cells, of the yellow-colored product MTT (3-(4,5-dimethylthiazol-2-yl)-2,5-diphenyltetrazolium bromide) to a blue-colored product, formazan. The amount of formazan thus obtained is directly proportional to the amount of live cells present in the culture well(s). This amount of formazan is measured by spectrophotometry.
(§2) The cell lines are maintained as a monolayer culture at 37° C. in stoppered culture dishes containing MEM 25 MM HEPES (Minimum Essential Medium) base medium. This medium is suited to the growth of a range of various mammalian diploid or primary cells. This medium is then supplemented with:
(§3) The 12 human cancer cell lines which were used were obtained from the American Type Culture Collection (ATCC, Rockville, Md., USA). These 12 cell lines are:
SW1088 (code ATCC: HTB-12) which is an astro-cytoma,
(§4) Experimentally, 100 μl of a cell suspension containing 20 000 to 50 000 (depending on the cell type used) cells/ml of culture medium are inoculated -in 96-well flat-bottomed multi-well plates and are left to stand in an incubator at 37° C., 5% CO2 and 70% humidity. After an incubation time of 24 hours, the culture medium is replaced with 100 μl of fresh medium containing either the various test compounds—at concentrations varying from 10^−5 to 10^−10 M—or the solvent having served for dissolving the products to be tested (control condition). […] The microplates are thus incubated for 3 hours at 37° C., then centrifuged for 10 minutes at 400 g. The yellowish solution of MTT is removed and the blue formazan crystals formed in the cell region are dissolved in 100 μl or DMSO. The microplates are then shaken for 5 minutes. […] Software incorporated in the spectrophotometer calculates the average optical density values and the standard deviation (SD) and standard error of mean (SEM) values.

Going from `COc1ccc(-c2cn(C)c3cc(OC)cc(O)c3c2=O)cc1` [CRL8377, 5-Hydroxy-7-methoxy-3-(4-methoxyphenyl)-1-methyl-1,4-dihydro-4-quinolinone] to `COc1ccc(-c2cn(C)c3ccc(OC)cc3c2=O)cc1` [CRL8378, 6-Methoxy-3-(4-methoxyphenyl)-1-methyl-1,4-dihydro-4-quinolinone], the viability at 10 µM rises from 99.8% to 108%.

For `COc1ccc2c(c1)c(=O)c(-c1ccccc1)cn2C` [CRL8379, 6-Methoxy-1-methyl-3-phenyl-1,4-dihydro-4-quinolinone], the viability at 10 µM was 98.3%.

Tested on: A549
Assay: as above
Format: cell-based
Settings: Homo sapiens, 10^−5 M, 72 hours of incubation, control condition = 100%, mean value, read-out: mean optical density as percentage of control, A549
Method: as §1, §2, §3, §4

Going from `COc1ccc(-c2cn(C)c3cc(OC)cc(O)c3c2=O)cc1` [CRL8377, 5-Hydroxy-7-methoxy-3-(4-methoxyphenyl)-1-methyl-1,4-dihydro-4-quinolinone] to `COc1ccc(-c2cn(C)c3ccc(OC)cc3c2=O)cc1` [CRL8378, 6-Methoxy-3-(4-methoxyphenyl)-1-methyl-1,4-dihydro-4-quinolinone], the viability at 10 µM rises from 67% to 91%.

Work on `COc1ccc2c(c1)c(=O)c(-c1ccccc1)cn2C` [CRL8379, 6-Methoxy-1-methyl-3-phenyl-1,4-dihydro-4-quinolinone] yielded a viability at 10 µM of 94%.

Tested on: HCT-15
Assay: as above
Format: cell-based
Settings: Homo sapiens, 10^−5 M, 72 hours of incubation, control condition = 100%, mean value, read-out: mean optical density as percentage of control, HCT-16
Method: as §1, §2, §3, §4

First: COc1ccc(-c2cn(C)c3cc(OC)cc(O)c3c2=O)cc1 [CRL8377, 5-Hydroxy-7-methoxy-3-(4-methoxyphenyl)-1-methyl-1,4-dihydro-4-quinolinone]
Second: COc1ccc(-c2cn(C)c3ccc(OC)cc3c2=O)cc1 [CRL8378, 6-Methoxy-3-(4-methoxyphenyl)-1-methyl-1,4-dihydro-4-quinolinone]
The viability at 10 µM of the first is lower: 86.6% for the first, 105% for the second.

`COc1ccc2c(c1)c(=O)c(-c1ccccc1)cn2C` [CRL8379, 6-Methoxy-1-methyl-3-phenyl-1,4-dihydro-4-quinolinone] showed a viability at 10 µM of 106%.

Tested on: U-373MG
Assay: as above
Format: cell-based
Settings: Homo sapiens, U373 MG; 10^−5 M, 72 hours of incubation, control condition = 100%, mean value; read-out: mean optical density as percentage of control, U-373MG
Method: as §1, §2, §3, §4

Going from `COc1ccc(-c2cn(C)c3cc(OC)cc(O)c3c2=O)cc1` [CRL8377, 5-Hydroxy-7-methoxy-3-(4-methoxyphenyl)-1-methyl-1,4-dihydro-4-quinolinone] to `COc1ccc(-c2cn(C)c3ccc(OC)cc3c2=O)cc1` [CRL8378, 6-Methoxy-3-(4-methoxyphenyl)-1-methyl-1,4-dihydro-4-quinolinone], the viability at 10 µM rises from 56.7% to 98.1%.

Work on `COc1ccc2c(c1)c(=O)c(-c1ccccc1)cn2C` [CRL8379, 6-Methoxy-1-methyl-3-phenyl-1,4-dihydro-4-quinolinone] yielded a viability at 10 µM of 113%.

Tested on: A-427
Assay: as above
Format: cell-based
Settings: Homo sapiens, 10^−5 M, 72 hours of incubation, control condition = 100%, mean value, read-out: mean optical density as percentage of control, A-427
Method: as §1, §2, §3, §4

Going from `COc1ccc(-c2cn(C)c3cc(OC)cc(O)c3c2=O)cc1` [CRL8377, 5-Hydroxy-7-methoxy-3-(4-methoxyphenyl)-1-methyl-1,4-dihydro-4-quinolinone] to `COc1ccc(-c2cn(C)c3ccc(OC)cc3c2=O)cc1` [CRL8378, 6-Methoxy-3-(4-methoxyphenyl)-1-methyl-1,4-dihydro-4-quinolinone], the viability at 10 µM rises from 26.5% to 72.3%.

With `COc1ccc2c(c1)c(=O)c(-c1ccccc1)cn2C` [CRL8379, 6-Methoxy-1-methyl-3-phenyl-1,4-dihydro-4-quinolinone] the viability at 10 µM was 94.2%.

Tested on: T-47D
Assay: as above
Format: cell-based
Settings: Homo sapiens, T47D; 10^−5 M, 72 hours of incubation, control condition = 100%, mean value; read-out: mean optical density as percentage of control, T-47D
Method: as §1, §2, §3, §4

Going from `COc1ccc(-c2cn(C)c3cc(OC)cc(O)c3c2=O)cc1` [CRL8377, 5-Hydroxy-7-methoxy-3-(4-methoxyphenyl)-1-methyl-1,4-dihydro-4-quinolinone] to `COc1ccc(-c2cn(C)c3ccc(OC)cc3c2=O)cc1` [CRL8378, 6-Methoxy-3-(4-methoxyphenyl)-1-methyl-1,4-dihydro-4-quinolinone], the viability at 10 µM rises from 66.9% to 110%.

Work on `COc1ccc2c(c1)c(=O)c(-c1ccccc1)cn2C` [CRL8379, 6-Methoxy-1-methyl-3-phenyl-1,4-dihydro-4-quinolinone] yielded a viability at 10 µM of 99.3%.

Tested on: LoVo
Assay: as above
Format: cell-based
Settings: Homo sapiens, 10^−5 M, 72 hours of incubation, control condition = 100%, mean value, read-out: mean optical density as percentage of control, LoVo
Method: as §1, §2, §3, §4

Compared with `COc1ccc(-c2cn(C)c3cc(OC)cc(O)c3c2=O)cc1` [CRL8377, 5-Hydroxy-7-methoxy-3-(4-methoxyphenyl)-1-methyl-1,4-dihydro-4-quinolinone], `COc1ccc(-c2cn(C)c3ccc(OC)cc3c2=O)cc1` [CRL8378, 6-Methoxy-3-(4-methoxyphenyl)-1-methyl-1,4-dihydro-4-quinolinone] is higher in viability at 10 µM: 85% for the first, 107% for the second.

Work on `COc1ccc2c(c1)c(=O)c(-c1ccccc1)cn2C` [CRL8379, 6-Methoxy-1-methyl-3-phenyl-1,4-dihydro-4-quinolinone] yielded a viability at 10 µM of 102%.

Tested on: U-87MG
Assay: as above
Format: cell-based
Settings: Homo sapiens, U-87 MG; 10^−5 M, 72 hours of incubation, control condition = 100%, mean value; read-out: mean optical density as percentage of control, U-87MG
Method: as §1, §2, §3, §4

First: COc1ccc(-c2cn(C)c3cc(OC)cc(O)c3c2=O)cc1 [CRL8377, 5-Hydroxy-7-methoxy-3-(4-methoxyphenyl)-1-methyl-1,4-dihydro-4-quinolinone]
Second: COc1ccc(-c2cn(C)c3ccc(OC)cc3c2=O)cc1 [CRL8378, 6-Methoxy-3-(4-methoxyphenyl)-1-methyl-1,4-dihydro-4-quinolinone]
The viability at 10 µM of the first is lower: 49.5% for the first, 73% for the second.

Work on `COc1ccc2c(c1)c(=O)c(-c1ccccc1)cn2C` [CRL8379, 6-Methoxy-1-methyl-3-phenyl-1,4-dihydro-4-quinolinone] yielded a viability at 10 µM of 95.3%.

Tested on: MCF7
Assay: as above
Format: cell-based
Settings: Homo sapiens, 10^−5 M, 72 hours of incubation, control condition = 100%, mean value, read-out: mean optical density as percentage of control, MCF7
Method: as §1, §2, §3, §4

First: COc1ccc(-c2cn(C)c3cc(OC)cc(O)c3c2=O)cc1 [CRL8377, 5-Hydroxy-7-methoxy-3-(4-methoxyphenyl)-1-methyl-1,4-dihydro-4-quinolinone]
Second: COc1ccc(-c2cn(C)c3ccc(OC)cc3c2=O)cc1 [CRL8378, 6-Methoxy-3-(4-methoxyphenyl)-1-methyl-1,4-dihydro-4-quinolinone]
The viability at 10 µM of the first is higher: 104% for the first, 93.5% for the second.

`COc1ccc2c(c1)c(=O)c(-c1ccccc1)cn2C` [CRL8379, 6-Methoxy-1-methyl-3-phenyl-1,4-dihydro-4-quinolinone] gave a viability at 10 µM of 91.6%.

Tested on: PC-3
Assay: as above
Format: cell-based
Settings: Homo sapiens, 10^−5 M, 72 hours of incubation, control condition = 100%, mean value, read-out: mean optical density as percentage of control, PC-3
Method: as §1, §2, §3, §4

Going from `COc1ccc(-c2cn(C)c3cc(OC)cc(O)c3c2=O)cc1` [CRL8377, 5-Hydroxy-7-methoxy-3-(4-methoxyphenyl)-1-methyl-1,4-dihydro-4-quinolinone] to `COc1ccc(-c2cn(C)c3ccc(OC)cc3c2=O)cc1` [CRL8378, 6-Methoxy-3-(4-methoxyphenyl)-1-methyl-1,4-dihydro-4-quinolinone], the viability at 10 µM rises from 87.4% to 100%.

`COc1ccc2c(c1)c(=O)c(-c1ccccc1)cn2C` [CRL8379, 6-Methoxy-1-methyl-3-phenyl-1,4-dihydro-4-quinolinone] showed a viability at 10 µM of 99.2%.

Tested on: not listed separately
Assay: Determination of the maximum tolerated dose (MTD)
Settings: B6D2F1/Jico, mouse, in vivo, ip; single intraperitoneal administration, doses 2.5 to 160 mg/kg, survival over 14 days
Method: The evaluation of the maximum tolerated dose was performed on 4- to 6-week-old B6D2F1/Jico mice. The compounds were administered intraperitoneally at increasing doses ranging from 2.5 to 160 mg/kg. The value of the MTD (expressed in mg/kg) is determined from the observation of the survival rate of the animals over a 14-day period after a single administration of the product under consideration. The change in weight of the animals is also monitored during this period. When the MTD value is greater than 160 mg/kg, the MTD value is considered as being 160 mg/kg by default.

`COc1ccc(-c2cn(C)c3cc(OC)cc(O)c3c2=O)cc1` [CRL8377, 5-Hydroxy-7-methoxy-3-(4-methoxyphenyl)-1-methyl-1,4-dihydro-4-quinolinone] and `COc1ccc(-c2cn(C)c3ccc(OC)cc3c2=O)cc1` [CRL8378, 6-Methoxy-3-(4-methoxyphenyl)-1-methyl-1,4-dihydro-4-quinolinone] cannot be ordered by MTD at 14 day: greater than 160 mg/kg for the first, greater than 160 mg/kg for the second.

Work on `COc1ccc2c(c1)c(=O)c(-c1ccccc1)cn2C` [CRL8379, 6-Methoxy-1-methyl-3-phenyl-1,4-dihydro-4-quinolinone] yielded an MTD at 14 day greater than 160 mg/kg.

Tested on: J82
Assay: MTT test, cytotoxic activity on non-clonogenic cell lines
Format: cell-based
Settings: Homo sapiens, 10^−5 M, 72 hours of incubation, control condition = 100%, mean value, read-out: mean optical density as percentage of control, J82
Method: as §1, §2, §3
(§5) J82 (code ATCC: HTB-1) and T24 (code ATCC: HTB-4) which are two bladder cancers,
as §4

First: COc1ccc(-c2cn(C)c3cc(OC)cc(O)c3c2=O)cc1 [CRL8377, 5-Hydroxy-7-methoxy-3-(4-methoxyphenyl)-1-methyl-1,4-dihydro-4-quinolinone]
Second: COc1ccc(-c2cn(C)c3ccc(OC)cc3c2=O)cc1 [CRL8378, 6-Methoxy-3-(4-methoxyphenyl)-1-methyl-1,4-dihydro-4-quinolinone]
The viability at 10 µM of the first is lower: 98.7% for the first, 99.6% for the second.

`COc1ccc2c(c1)c(=O)c(-c1ccccc1)cn2C` [CRL8379, 6-Methoxy-1-methyl-3-phenyl-1,4-dihydro-4-quinolinone] gave a viability at 10 µM of 101%.

Tested on: T24
Assay: as above
Format: cell-based
Settings: Homo sapiens, T-24; 10^−5 M, 72 hours of incubation, control condition = 100%, mean value; read-out: mean optical density as percentage of control, T24
Method: as §1, §2, §3, §5, §4

First: COc1ccc(-c2cn(C)c3cc(OC)cc(O)c3c2=O)cc1 [CRL8377, 5-Hydroxy-7-methoxy-3-(4-methoxyphenyl)-1-methyl-1,4-dihydro-4-quinolinone]
Second: COc1ccc(-c2cn(C)c3ccc(OC)cc3c2=O)cc1 [CRL8378, 6-Methoxy-3-(4-methoxyphenyl)-1-methyl-1,4-dihydro-4-quinolinone]
The viability at 10 µM of the first is lower: 85% for the first, 89.2% for the second.

`COc1ccc2c(c1)c(=O)c(-c1ccccc1)cn2C` [CRL8379, 6-Methoxy-1-methyl-3-phenyl-1,4-dihydro-4-quinolinone] gave a viability at 10 µM of 102%.
